The source of these data is patent US9120994B2, “Terpene alcohols for use in fragrance compositions and perfumed products” (Givaudan S.A., priority 2011, dated 2015).

The assay is described as follows: GC-odor threshold concentration (gas chromatograph with sniff port, panel of trained evaluators). The note with it: for Odor threshold concentration (relative): GC sniff port, panel of trained evaluators, identical conditions, relative values (Ic = 1). As for the experimental part: Definition: The odour threshold concentration is defined as the lowest concentration of the vapour of an odourant material in the air which can be detected by smell and can be measured by standard methods known in the art. According to standard procedures known to the person skilled in the art, threshold concentrations for volatile perfumery compounds are determined on a gas chromatograph equipped with a sniff port by a panel of trained evaluators. The lowest concentration smelled by each panelist is recorded as the individual threshold concentration expressed in ng (absolute amount of compound delivered at the sniff port).

For `CC(C)=CC[C@H](C)[C@H]1C[C@]1(C)CO` (relative stereo) [Compound Ib, [(1S*,2R*)-1-Methyl-2-[(S*)-5-methylhex-4-en-2-yl]cyclopropyl]methanol], the “Odor threshold concentration (relative)” value is 100. For `CC(C)=CC[C@@H](C)[C@H]1C[C@]1(C)CO` (relative stereo) [Compound Ic, [(1S*,2R*)-1-Methyl-2-[(R*)-5-methylhex-4-en-2-yl]cyclopropyl]methanol], the “Odor threshold concentration (relative)” value was 1. Moreover, the “odor threshold concentration, times lower than compound Ib” value (compared with [(1S*,2R*)-1-methyl-2-[(S*)-5-methylhex-4-en-2-yl]cyclopropyl]methanol (Ib)) stood at 100 times. Take `CC(C)=CCCC(C)CCO` (stereo not shown) [Citronellol, 3,7-dimethyloct-6-enol, reference compound]: the “Odor threshold concentration (relative)” value was 185. For the compound `CC(C)=CCC(C)/C=C(\C)CO` (stereo not shown) [Compound Ia, 2,4,7-Trimethylocta-2,6-dien-1-ol], the “Odor threshold concentration (relative)” value is 70. Further, where the note is “compared with citronellol”, the “odor threshold concentration, times lower than citronellol” value is “more than 2 times”. In addition, the “odor threshold concentration, times lower than geraniol” value (compared with geraniol) is “more than 11 times”.
